Laboratory results as given in US20230005594A1, “CLINICAL DECISION SUPPORT FOR PERSONALIZED ADAPTIVE PROSTATE CANCER THERAPY” (H. LEE MOFFITT CANCER CENTER AND RESEARCH INSTITUTE, INC., priority 2019, published 2023).
Several values for one entry are separate records, joined by “and”; a condition that tells them apart may be missing. Identical values can stand only once. Like-named read-outs stand apart in the source and are kept apart here.

How the values were obtained:
castration-resistant PCa = test: Clinical trial of second-line intermittent AA therapy (NCT02415621); assay type: in vivo, human
Source text: Prior theoretical, pre-clinical, and clinical studies have questioned the utilization of MTD treatment in non-curative settings. That is, continuous MTD treatment fails to consider the evolutionary dynamics of treatment presponse, where competition, adaptation and selection between treatment sensitive and resistant cells contribute to therapy failure. In fact, this strategy, by maximally selecting for resistant phenotypes and eliminating other competing populations, may actually accelerate the emergence of resistant populations—a well-studied evolutionary phenomenon termed “competitive release.” In part to address this issue, prior trials have used an intermittent on- and off-ADT (IADT) to reduce toxicity and delay time to progression (TTP). […]
Survival benefits have not been confirmed clinically, which can be due to the conservative trial designs of long on-treatment cycles (7-8 months) and short off-cycles. […] PSA values can be monitored every four weeks as done in the clinic. […] For Patient 36, relative PSA values of 50% or 90% of pre-treatment PSA levels as triggers to pause IADT and pre-treatment PSA levels to resume IADT yield longer TTP than the static triggers (PSA monitored every 4 weeks, IADT is paused if PSA<4 ng/mL for consecutive 36 weeks, and IADT resumes if PSA>10 ng/mL). […]

[1] = tested on: metastatic castration resistant prostate cancer (mCRPC); conditions: cited from earlier work
PCa = conditions: cited from earlier work
hormone-refractory PCa = conditions: docetaxel added at end of ADT; cited from earlier work
advanced prostate cancer = conditions: patients with advanced prostate cancer; cited from earlier work
PCaSC = conditions: cited from earlier work
[2] = tested on: metastatic, hormone-sensitive PCa; conditions: cited from earlier work
[3] = abiraterone plus gonadotropin-releasing hormone analog, AA-302 trial
[4] = docetaxel plus ADT, added at beginning of hormone therapy

CC(=O)O[C@H]1CC[C@@]2(C)C(=CC[C@@H]3[C@@H]2CC[C@]2(C)C(c4cccnc4)=CC[C@@H]32)C1 [abiraterone acetate]
median TTP (castration-resistant PCa; continuous MTD AA): 13 months | median TTP (castration-resistant PCa; intermittent AA therapy, median not reached): at least 33 months | PSA response rate [1, 3]: 62% | median time to progression [1, 3]: 11.1 months | overall survival compared to prednisone or placebo ([1]; second-line hormone therapy): prolong overall survival

CC(=O)O[C@@]12CO[C@@H]1C[C@H](O)[C@@]1(C)C(=O)[C@H](O)C3=C(C)[C@@H](OC(=O)[C@H](O)[C@@H](NC(=O)OC(C)(C)C)c4ccccc4)C[C@@](O)([C@@H](OC(=O)c4ccccc4)[C@H]21)C3(C)C [docetaxel]
increase in overall survival time compared to ADT alone (PCa; docetaxel added at beginning of long-term hormone therapy): 10-13 months | TTP (PCa; [4]): 20.2 months | overall survival time (PCa; [4]): 81 months and 57.6 months | increase in survival (hormone-refractory PCa): 2.4 months | survival (hormone-refractory PCa): 18.9 months | Total tumor regression rate (δS+δC), median (advanced prostate cancer): 0.015 day⁻¹ | Total tumor regression rate (δS+δC), range (advanced prostate cancer): 0.006 to 0.032 day⁻¹ | PCaSC docetaxel sensitivity as share of PCaC sensitivity (PCaSC): about 25% | survival benefit ([2]; CHAARTED trial, LVD patients): no statistically significant survival benefit | overall survival benefit ([2]; CHAARTED trial, patients with HVD): statistically significant overall survival benefit | increase in overall survival ([2]; GETUG-AFU15, high volume disease (HVD), DOC with continuous ADT, non-significant): 20% | survival benefit ([2]; GETUG-AFU15, low volume disease (LVD)): no survival benefit | overall survival benefit ([2]; STAMPEDE trial, median follow-up of 43 months): more than 12 months
